Data from ChEMBL document CHEMBL4152362, “Discovery of DS-6930, a potent selective PPARγ modulator. Part II: Lead optimization” (Bioorg Med Chem, 2018).
The source made the active and inactive calls. The rule behind the calls is not given here.

Assays:
[1] = Cmax in F344/DuCrlCrlj rat at 100 mg/kg, po via gavage measured on day 28 post dose; assay type: ADME, organism-based; set-up: dose 100 mg/kg, route oral; details: in vivo
[2] = Tmax in F344/DuCrlCrlj rat at 100 mg/kg, po via gavage measured on day 28 post dose; assay type: ADME, organism-based; details: in vivo
[3] = AUC (0 to 24 hrs) in F344/DuCrlCrlj rat at 100 mg/kg, po via gavage measured on day 28 post dose; assay type: ADME, organism-based; set-up: dose 100 mg/kg, time < 24 hr, route oral; details: in vivo
[4] = Cmax in F344/DuCrlCrlj rat at 300 mg/kg, po via gavage measured on day 28 post dose; assay type: ADME, organism-based; set-up: dose 300 mg/kg, route oral; details: in vivo
[5] = Tmax in F344/DuCrlCrlj rat at 300 mg/kg, po via gavage measured on day 28 post dose; assay type: ADME, organism-based; details: in vivo
[6] = AUC (0 to 24 hrs) in F344/DuCrlCrlj rat at 300 mg/kg, po via gavage measured on day 28 post dose; assay type: ADME, organism-based; set-up: time < 24 hr, dose 300 mg/kg, route oral; details: in vivo
[7] = Cmax in F344/DuCrlCrlj rat at 1000 mg/kg, po via gavage measured on day 28 post dose; assay type: ADME, organism-based; set-up: dose 1000 mg/kg, route oral; details: in vivo
[8] = Tmax in F344/DuCrlCrlj rat at 1000 mg/kg, po via gavage measured on day 28 post dose; assay type: ADME, organism-based; details: in vivo
[9] = AUC (0 to 24 hrs) in F344/DuCrlCrlj rat at 1000 mg/kg, po via gavage measured on day 28 post dose; assay type: ADME, organism-based; set-up: time < 24 hr, dose 1000 mg/kg, route oral; details: in vivo
[10] = Drug uptake in F344/DuCrlCrlj rat plasma administered via oral gavage measured on day 28 post dose; assay type: ADME
Rattus norvegicus [11] = experiment: Antidiabetic activity in Zucker diabetic fatty rat assessed as reduction in plasma glucose level at 3 mg/kg, po administered once daily for 14 days measured on day 15 relative to control; assay type: functional; set-up: scale not given: the % may be the effect or the level left
Rattus norvegicus [12] = experiment: Toxicity in Zucker diabetic fatty rat assessed as body weight gain at 3 mg/kg, po administered once daily for 14 days relative to control; assay type: organism-based; details: in vivo, 336 h
Rattus norvegicus [13] = experiment: Antidiabetic activity in Zucker diabetic fatty rat assessed as reduction in plasma glucose level administered orally once daily for 21 days measured on day 22; assay type: functional, organism-based
Rattus norvegicus [14] = experiment: Antidiabetic activity in Zucker diabetic fatty rat assessed as reduction in plasma glucose level at 0.3 mg/kg, po administered once daily for 21 days measured on day 22 relative to control; assay type: functional; set-up: scale not given: the % may be the effect or the level left
[15] = Cmax in Zucker diabetic fatty rat at 0.3 mg/kg, po administered once daily for 21 days followed by additional administration on day 22; assay type: ADME, organism-based; set-up: dose 0.3 mg/kg, route oral; details: in vivo
[16] = Tmax in Zucker diabetic fatty rat at 0.3 mg/kg, po administered once daily for 21 days followed by additional administration on day 22; assay type: ADME, organism-based; details: in vivo
[17] = AUC (0 to 24 hrs) in Zucker diabetic fatty rat at 0.3 mg/kg, po administered once daily for 21 days followed by additional administration on day 22; assay type: ADME, organism-based; set-up: dose 0.3 mg/kg, time < 24 hr, route oral; details: in vivo
[18] = Cmax in F344/DuCrlCrlj rat at 50 mg/kg, po via gavage measured on day 28 post dose; assay type: ADME, organism-based; set-up: dose 50 mg/kg, route oral; details: in vivo
[19] = AUC (0 to 24 hrs) in F344/DuCrlCrlj rat at 50 mg/kg, po via gavage measured on day 28 post dose; assay type: ADME, organism-based; set-up: time < 24 hr, dose 50 mg/kg, route oral; details: in vivo
Rattus norvegicus [20] = experiment: Toxicity in F344/DuCrlCrlj rat assessed as death at 50 mg/kg, po administered via gavage once daily for 28 days; assay type: organism-based; details: in vivo, 672 h
Rattus norvegicus [21] = experiment: Toxicity in F344/DuCrlCrlj rat assessed as clinical abnormality at 50 mg/kg, po administered via gavage once daily for 28 days; assay type: organism-based; details: in vivo, 672 h
Rattus norvegicus [22] = experiment: Toxicity in F344/DuCrlCrlj rat assessed as body weight gain at 50 mg/kg, po administered via gavage once daily for 28 days relative to control; assay type: organism-based; details: in vivo, 672 h
Rattus norvegicus [23] = experiment: Toxicity in F344/DuCrlCrlj rat assessed as reduction in RBC count at 50 mg/kg, po administered via gavage once daily for 28 days relative to control; assay type: organism-based; set-up: scale not given: the % may be the effect or the level left; details: in vivo, 672 h
Rattus norvegicus [24] = experiment: Toxicity in F344/DuCrlCrlj rat assessed as effect on hematocrit at 50 mg/kg, po administered via gavage once daily for 28 days; assay type: organism-based; details: in vivo, 672 h
Rattus norvegicus [25] = experiment: Toxicity in F344/DuCrlCrlj rat assessed as increase in heart weight at 50 mg/kg, po administered via gavage once daily for 28 days; assay type: organism-based; details: in vivo, 672 h
Rattus norvegicus [26] = experiment: Toxicity in F344/DuCrlCrlj rat assessed as effect on kidney weight at 50 mg/kg, po administered via gavage once daily for 28 days; assay type: organism-based; details: in vivo, 672 h
Rattus norvegicus [27] = experiment: Toxicity in F344/DuCrlCrlj rat assessed as effect on ovary weight at 50 mg/kg, po administered via gavage once daily for 28 days; assay type: organism-based; details: in vivo, 672 h
[28] = molecular target: T1, Peroxisome proliferator-activated receptor gamma (Homo sapiens) (UniProt P37231); experiment: Agonist activity at recombinant human GAL4-TAD fused PPARgamma LBD assessed as induction of GAL4-DBD fused RIP140e184b co-factor recruitment after 24 to 48 hrs by fluorescence assay
T1 sequence (whole entry): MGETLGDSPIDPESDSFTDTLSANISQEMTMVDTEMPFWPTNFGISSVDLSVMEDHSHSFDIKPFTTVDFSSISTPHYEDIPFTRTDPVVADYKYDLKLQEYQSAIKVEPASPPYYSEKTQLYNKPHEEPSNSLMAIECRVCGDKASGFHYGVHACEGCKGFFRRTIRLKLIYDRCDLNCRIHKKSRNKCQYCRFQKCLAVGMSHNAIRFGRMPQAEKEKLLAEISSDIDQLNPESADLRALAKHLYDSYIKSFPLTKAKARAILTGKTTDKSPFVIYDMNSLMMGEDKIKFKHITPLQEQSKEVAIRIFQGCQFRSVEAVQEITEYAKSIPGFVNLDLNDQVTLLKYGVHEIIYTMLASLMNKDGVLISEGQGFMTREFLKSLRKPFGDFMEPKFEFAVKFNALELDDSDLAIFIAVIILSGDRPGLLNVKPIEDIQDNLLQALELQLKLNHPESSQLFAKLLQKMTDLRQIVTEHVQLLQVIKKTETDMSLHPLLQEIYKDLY

[29] = molecular target: T1, Peroxisome proliferator-activated receptor gamma (Homo sapiens); experiment: Agonist activity at recombinant human GAL4-TAD fused PPARgamma LBD assessed as induction of GAL4-DBD fused TRAP220 co-factor recruitment after 24 to 48 hrs by fluorescence assay
[30] = molecular target: T1, Peroxisome proliferator-activated receptor gamma (Homo sapiens); experiment: Agonist activity at recombinant human GAL4-TAD fused PPARgamma LBD assessed as induction of GAL4-DBD fused CBP co-factor recruitment after 24 to 48 hrs by fluorescence assay
[31] = molecular target: T1, Peroxisome proliferator-activated receptor gamma (Homo sapiens); experiment: Agonist activity at recombinant human GAL4-TAD fused PPARgamma LBD assessed as induction of GAL4-DBD fused SRC1 co-factor recruitment after 24 to 48 hrs by fluorescence assay
[32] = molecular target: T1, Peroxisome proliferator-activated receptor gamma (Homo sapiens); experiment: Agonist activity at recombinant human GAL4-TAD fused PPARgamma LBD assessed as induction of GAL4-DBD fused NCoA3 co-factor recruitment after 24 to 48 hrs by fluorescence assay
in vivo = details: F344/DuCrlCrlj, rat, po, 50 mg/kg
Description: Tmax in F344/DuCrlCrlj rat at 50 mg/kg, po via gavage measured on day 28 post dose

For Cc1cnc(Oc2ccc3nc(COc4cccc(C(=O)O)c4)n(C)c3c2)c(C)c1.Cl, the Cmax [1] was 92.8 µg/mL, the Tmax [2] was 0.5 h and the AUC at 24 h [3] was 399 µg·h/mL. For the same compound, the Cmax [4] was 206 µg/mL, the Tmax [5] was 0.5 h and the AUC at 24 h [6] was 933 µg·h/mL. It also gave a Cmax [7] of 273 µg/mL, a Tmax [8] of 1 h and an AUC at 24 h [9] of 1080 µg·h/mL. For the same compound, the Drug uptake [10] was “Dose-dependent effect”.

For CN(CCOc1ccc(CC2SC(=O)NC2=O)cc1)c1ccccn1 (centres undefined) [ROSIGLITAZONE], the Activity (Rattus norvegicus [11]) was 40.3%, the Activity (Rattus norvegicus [12]) was 12.6% and the Activity (Rattus norvegicus [13]) was “Dose-dependent effect”. It also gave an Activity (Rattus norvegicus [14]) of 50%, a Cmax [15] of 1.04 µg/mL and a Tmax [16] of 1.6 h. The AUC at 24 h [17] was 6.55 µg·h/mL, the Cmax [18] was 67.6 µg/mL and the AUC at 24 h [19] was 525 µg·h/mL. For the same compound, the Drug uptake [10] was “Dose-dependent effect”, the Activity (Rattus norvegicus [20]) was “Non-Toxic” and the Activity (Rattus norvegicus [21]) was “Non-Toxic”. The Activity (Rattus norvegicus [22]) was 10%, the Activity (Rattus norvegicus [23]) was 13% and the Activity (Rattus norvegicus [24]) was “Non-Toxic”. The Activity (Rattus norvegicus [25]) was 18%, the Activity (Rattus norvegicus [26]) was “Toxic” and the Activity (Rattus norvegicus [27]) was “Toxic”. For the same compound, the Activity [28] was “Active”, the Activity [29] was “Active” and the Activity [30] was “Active”. For the same compound, the Activity [31] was “Active”, the Activity [32] was “Active” and the Tmax (in vivo) was 1 h.
